Article PMC9944328 (Nature Communications, 2023)

Biological target: SSTR2 (Homo sapiens, UniProt P30874)
Assay: SSTRs Gi-mediated cAMP inhibition, GloSensor, HEK293, 5 μM forskolin, 15 min room temperature (SSTR2 wild-type);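 on Bottom (best-fit value): normalized to the maximal wild-type response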;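 on Bottom (best-fit): normalized to the maximal wild-type response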;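 on Span (best-fit value): normalized to the maximal wild-type response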;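 on Span (best-fit): normalized to the maximal wild-type response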;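 on Top (best-fit value): normalized to the maximal wild-type response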;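 on Top (best-fit): normalized to the maximal wild-type response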
Type: cell-based
Set-up: Best-fit Top, cAMP inhibition / Span, cAMP inhibition / Best-fit Bottom / Best-fit Top / Best-fit Span / Bottom / Span (best-fit value), cAMP inhibition / Top (best-fit value), cAMP inhibition: scale not given here
Procedure: The levels of the intracellular 3′, 5′-cyclic AMP (cAMP) were measured by the GloSensor cAMP assay (Promega) as described in the previous studies[28],[41] which has been widely used. The human full-length SSTRs and mutants were cloned into the pcDNA3.1+ vector with a HA signal sequence followed by a Flag tag at the N-terminus. HEK293 cells (ATCC, CRL-1573) were seeded into 6-well microplates at a density of 1.0 × 10^6 cells/well and cultured for 24 h at 37 °C with 5% CO2. Cells were then co-transfected with SSTR wild-type or mutants and GloSensor plasmids. After 24 h of transfection, the cells were dissociated with TrypLE™ Express Enzyme (1X) (Thermo Fisher Scientific) and collected by centrifugation at 500 × g for 5 min. Then the collected cells were suspended in Hank’s balanced salt solution [HBSS (Thermo Fisher Scientific)] supplemented with […] (YEASEN), and then the suspension cells were seeded into 96-well plates with 90 μl/well. After incubating at room temperature for 40 min, 5 μM forskolin and ligands diluted in HBSS were added to each well and the plates were incubated at room temperature for 15 min. […] were measured using the Synergy H1 microplate reader (BioTek) and the data presented are means of at least three independent experiments.

Chain of SSTR2 (P30874 whole entry): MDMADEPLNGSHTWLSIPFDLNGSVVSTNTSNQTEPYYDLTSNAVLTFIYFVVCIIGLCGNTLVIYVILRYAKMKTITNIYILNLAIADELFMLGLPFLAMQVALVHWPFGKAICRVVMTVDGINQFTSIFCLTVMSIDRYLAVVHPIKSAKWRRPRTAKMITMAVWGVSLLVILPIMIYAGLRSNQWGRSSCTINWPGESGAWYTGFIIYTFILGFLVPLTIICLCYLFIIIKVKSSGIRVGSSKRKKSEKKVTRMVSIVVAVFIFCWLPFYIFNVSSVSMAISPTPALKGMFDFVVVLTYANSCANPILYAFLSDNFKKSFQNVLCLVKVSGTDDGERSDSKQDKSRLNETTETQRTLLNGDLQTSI

C[C@@H](O)[C@@H]1NC(=O)[C@H](CCCCN)NC(=O)[C@@H](Cc2c[nH]c3ccccc23)NC(=O)[C@H](Cc2ccccc2)NC(=O)[C@@H](NC(=O)[C@H](N)Cc2ccccc2)CSSC[C@@H](C(=O)N[C@H](CO)[C@@H](C)O)NC1=O [octreotide]
Emax (HEK293, Gi signaling, SSTR2 WT, n=6, read-out: Emax): 100%
Activation potency level (SSTR2, Fig. 1): nanomolar level
Bottom (best-fit value) (WT-1, run 1, batch of I284A): 6.42
Span (best-fit value) (WT-1, run 1, batch of I284A): 102.3
Top (best-fit value) (WT-1, run 1, batch of I284A): 108.8
Bottom (best-fit value) (WT-1, run 1, batch of P286A): 0.4925
Span (best-fit value) (WT-1, run 1, batch of P286A): 108.4
Top (best-fit value) (WT-1, run 1, batch of P286A): 108.9
Bottom (best-fit value) (WT-1, run 1, batch of S285A): -1.909
Span (best-fit value) (WT-1, run 1, batch of S285A): 108.3
Top (best-fit value) (WT-1, run 1, batch of S285A): 106.4
Bottom (best-fit value) (WT-1, run 1, batch of T194A): 5.269
Bottom (best-fit value) (WT-1, run 1, batch of T287A): 5.269
Span (best-fit value) (WT-1, run 1, batch of T287A): 95.18
Top (best-fit value) (WT-1, run 1, batch of T287A): 100.5
LogEC50 (best-fit value) (WT-1, run 1, batch of W188A): -10.06
Span (best-fit value) (WT-1, run 1, batch of W188A): 114.6
Top (best-fit value) (WT-1, run 1, batch of W188A): 120.5
Best-fit Bottom (WT-1 of D295A set): -0.7512
Best-fit Span (WT-1 of D295A set): 96.76
Best-fit Top (WT-1 of D295A set): 96
Span (best-fit) (WT-1 of F208A set): 95.18
Bottom (best-fit) (WT-1 of F265A set): 9.705
Top (best-fit) (WT-1 of F265A set): 105
Bottom (best-fit) (WT-1 of F272A set): 5.108
Span (best-fit) (WT-1 of F272A set): 89.16
Top (best-fit) (WT-1 of F272A set): 94.27
Best-fit Bottom (WT-1 of F294A set): 5.269
Best-fit Span (WT-1 of F294A set): 95.18
Best-fit Top (WT-1 of F294A set): 100.5
Best-fit Bottom (WT-1 of K291A set): 7.96
Best-fit Span (WT-1 of K291A set): 79.36
Best-fit Top (WT-1 of K291A set): 87.32
Best-fit Bottom (WT-1 of L290A set): -1.909
Best-fit Span (WT-1 of L290A set): 108.3
Best-fit Top (WT-1 of L290A set): 106.4
Bottom (best-fit) (WT-1 of N276A set): 7.96
Span (best-fit) (WT-1 of N276A set): 79.36
Top (best-fit) (WT-1 of N276A set): 87.32
Bottom (best-fit) (WT-1 of P220A set): 21.28
Span (best-fit) (WT-1 of P220A set): 73.55
Top (best-fit) (WT-1 of P220A set): 94.83
Best-fit Bottom (WT-1 of S279A set): 5.108
Best-fit Span (WT-1 of S279A set): 89.16
Best-fit Top (WT-1 of S279A set): 94.27
Bottom (best-fit) (WT-1 of W269A set): 6.42
Span (best-fit) (WT-1 of W269A set): 102.3
Top (best-fit) (WT-1 of W269A set): 108.8
Best-fit Bottom (WT-1 of Y302A set): 6.42
Best-fit Span (WT-1 of Y302A set): 102.3
Best-fit Top (WT-1 of Y302A set): 108.8
Bottom (best-fit value) (WT-2, run 2, batch of I284A): -0.5171
Span (best-fit value) (WT-2, run 2, batch of I284A): 111.1
Top (best-fit value) (WT-2, run 2, batch of I284A): 110.6
Bottom (best-fit value) (WT-2, run 2, batch of P286A): 4.88
LogEC50 (best-fit value) (WT-2, run 2, batch of P286A): -10.01
Span (best-fit value) (WT-2, run 2, batch of P286A): 102.3
Top (best-fit value) (WT-2, run 2, batch of P286A): 107.2
Bottom (best-fit value) (WT-2, run 2, batch of S285A): 5.269
Span (best-fit value) (WT-2, run 2, batch of S285A): 95.18
Top (best-fit value) (WT-2, run 2, batch of S285A): 100.5
Bottom (best-fit value) (WT-2, run 2, batch of T194A): 2.714
Bottom (best-fit value) (WT-2, run 2, batch of T287A): -7.526
Span (best-fit value) (WT-2, run 2, batch of T287A): 120.1
Top (best-fit value) (WT-2, run 2, batch of T287A): 112.6
Bottom (best-fit value) (WT-2, run 2, batch of W188A): 4.88
LogEC50 (best-fit value) (WT-2, run 2, batch of W188A): -10.01
Span (best-fit value) (WT-2, run 2, batch of W188A): 102.3
Top (best-fit value) (WT-2, run 2, batch of W188A): 107.2
Best-fit Bottom (WT-2 of D295A set): -0.7512
Best-fit Span (WT-2 of D295A set): 96.76
Best-fit Top (WT-2 of D295A set): 96
Span (best-fit) (WT-2 of F208A set): 79.83
Bottom (best-fit) (WT-2 of F265A set): 21.28
Span (best-fit) (WT-2 of F265A set): 73.55
Top (best-fit) (WT-2 of F265A set): 94.83
Bottom (best-fit) (WT-2 of F272A set): 5.269
Span (best-fit) (WT-2 of F272A set): 95.18
Top (best-fit) (WT-2 of F272A set): 100.5
Best-fit Bottom (WT-2 of F294A set): 2.714
Best-fit Span (WT-2 of F294A set): 101.1
Best-fit Top (WT-2 of F294A set): 103.8
Best-fit Bottom (WT-2 of K291A set): 0.9124
Best-fit Span (WT-2 of K291A set): 101.5
